Test results taken from US9943506B2, “BCL6 inhibitors as anticancer agents” (Cornell University, priority 2013, dated 2018).
Where two headings read alike, the source gives them in different places.

Legend:
Toledo DLBCL cells = test: Growth inhibition of DLBCL cells, Toledo; type: cell-based; conditions: Homo sapiens
Description: (§1) 50,000 cells per well were treated for 48 hours with different concentrations of the compounds in 96 well plates, using DMSO as a control. Then, viability was determined with Cell Titer Blue™ (Promega) and growth inhibition was calculated as the percentage of viable cells with respect to cells treated with DMSO alone. GI50 values were determined by dose-response curves.
(§2) 293T cells were grown in Dulbecco's modified Eagles medium supplemented with 10% fetal bovine serum (FBS) (Gemini Bio-Products, Woodland, Calif.) and 1% penicillin-streptomycin. DLBCL cell lines OCI-Ly1, OCI-Ly1-B50, OCI-Ly7, OCI-Ly10 and OCI-Ly19 were grown in 80% Iscove's medium, 20% FBS and penicillin G/streptomycin. DLBCL cell lines Toledo, Farage, SU-DHL4, DOHH-2, SC-1, RCK8, TMD8, HBL-1, Ly3, Karpas 422 and SU-DHL6 were cultured in 90% RPMI medium, 10% FBS, 2 mM glutamine, 10 mM Hepes and penicillin G/streptomycin. All cell lines were cultured at 37° C. in a humidified atmosphere of 5% CO2.

BCL6-BTB = BCL6-BTB (Homo sapiens, UniProt P41182); test: MicroScale Thermophoresis binding to BCL6-BTB
Description: BCL6 is also required for normal development of germinal center (GC) B-cells.
Recombinant BCL6-BTB was labeled using the RED-NHS Labeling kit (NanoTemper Technologies). […] The label:protein ratio was determined using photometry at 650 nm and Bradford reagent. […] The labeled BCL6-BTB was adjusted to 400 nM with PBS (Thermo) buffer supplemented with 0.05% Tween-80 (Fisher scientific). […] After 10 min incubation, approximately 4 μL of each solution was filled into Monolith NT Standard Treated Capillaries (NanoTemper Technologies GmbH). Thermophoresis was measured using a Monolith NT.115 instrument (NanoTemper Technologies GmbH) at an ambient temperature of 25° C. with 5 s/30 s/5 s laser off/on/off times, respectively. Instrument parameters were adjusted with 90% LED power and 40% MST power. Data of three independent experiments were analyzed (NT.Analysis software version 1.5.41, NanoTemper Technologies) using the signal from Thermophoresis.

SUDHL6 DLBCL cells = test: Growth inhibition of DLBCL cells, SUDHL6; type: cell-based; conditions: Homo sapiens, SU-DHL-6
Description: as §1, §2

Ly7 DLBCL cells = test: Growth inhibition of DLBCL cells, Ly7; type: cell-based
Description: as §1, §2

Karpas 422 DLBCL cells = test: Growth inhibition of DLBCL cells, Karpas 422; type: cell-based; conditions: Homo sapiens, read-out: GI50 Karpas 422
Description: as §1, §2

Ly3 DLBCL cells = test: Growth inhibition of DLBCL cells, Ly3; type: cell-based
Description: as §1, §2

Ly1B50 DLBCL cells = test: Growth inhibition of DLBCL cells, Ly1B50; type: cell-based; conditions: Table 2; BCL-6 independent; 48 hours
Description: as §1, §2

Ly10 DLBCL cells = test: Growth inhibition of DLBCL cells, Ly10; type: cell-based; conditions: Table 2, BCL-6 dependent, 48 hours
Description: as §1, §2

WSU-DLCL2 DLBCL cells = test: Growth inhibition of DLBCL cells, WSU-DLCL2; type: cell-based; conditions: Homo sapiens, WSUDLCL2; Table 8; Bcl-6 independent
Description: as §1

[1] = Table 13, BCL6 dependent, read-out: GI50 SUDHL6
[2] = Table 2, BCL-6 independent, 48 hours
[3] = Table 2, BCL-6 dependent, 48 hours
[4] = 48 h, Table 2, BCL-6 independent
[5] = Table 2, BCL-6 dependent, 48 hours, read-out: GI50 SUDH6
[6] = Table 7, BCL6 dependent, read-out: GI50 SUDHL6
[7] = Table 8, Bcl-6 dependent, read-out: GI50 SUDH6

| Kd (BCL6-BTB; Table 13) [µM] | GI50 (SUDHL6 DLBCL cells; [1]) [µM] | GI50 (Karpas 422 DLBCL cells; Table 8, Bcl-6 independent) [µM] | GI50 (SUDHL6 DLBCL cells; [7]) [µM] | Structure (SMILES) | GI50 (Toledo DLBCL cells; Table 13, BCL6 independent) [µM] | GI50 (Ly7 DLBCL cells; Table 13, BCL6 dependent) [µM] | GI50 (Ly3 DLBCL cells; Table 8, Bcl-6 dependent) [µM] | GI50 (Toledo DLBCL cells; Table 8, Bcl-6 independent) [µM] | GI50 (Ly7 DLBCL cells; Table 8, Bcl-6 dependent) [µM] | GI50 (WSU-DLCL2 DLBCL cells) [µM] | further results |
| --- | --- | --- | --- | --- | --- | --- | --- | --- | --- | --- | --- |
| 315 ± 24 | > 125 | – | – | CCOc1ccc2[nH]c(SCc3ccccc3)nc2c1 [Compound 1063] | > 125 | > 125 | – | – | – | – | – |
| – | – | > 40 | 10 ± 1 | O=C(CN1C(=O)C(=O)c2cc(Cl)ccc21)OCc1ccccc1 [Compound 2071] | – | – | > 40 | > 40 | 26 ± 1 | > 40 | GI50 (Toledo DLBCL cells; Table 7, BCL6 independent): > 125 µM; GI50 (SUDHL6 DLBCL cells; [6]): 35 µM; GI50 (Ly7 DLBCL cells; Table 7, BCL6 dependent): 53 µM |
| – | – | > 40 | 17 ± 1 | O=C(CN1C(=O)C(=O)c2cc(F)ccc21)OCc1ccccc1 [Compound 2073] | – | – | > 40 | > 40 | 36 ± 7 | > 40 | GI50 (Toledo DLBCL cells; Table 7, BCL6 independent): 40 µM; GI50 (SUDHL6 DLBCL cells; [6]): 30 µM; GI50 (Ly7 DLBCL cells; Table 7, BCL6 dependent): 30 µM |
| – | – | > 30 | > 30 | O=C(O)CCN1C(=O)/C(=C2/C(=O)N(CC(=O)OCc3ccccc3)c3ccc(F)cc32)SC1=S [Compound 2097] | – | – | > 30 | > 30 | > 30 | > 30 | – |
| – | – | > 30 | > 30 | O=C(O)CCN1C(=O)/C(=C2/C(=O)N(CC(=O)OCc3ccccc3)c3ccc(Cl)cc32)SC1=S [Compound 2099] | – | – | > 30 | > 30 | > 30 | > 30 | GI50 (Toledo DLBCL cells; Table 5, BCL6 independent): 75 µM; Kd (BCL6-BTB; Table 5): 5.5 ± 0.7 µM; GI50 (SUDHL6 DLBCL cells; Table 5, BCL6 dependent, read-out: GI50 SUDHL6): 30 ± 7 µM; GI50 (Ly7 DLBCL cells; Table 5, BCL6 dependent): 65 µM |
| – | – | > 30 | > 30 | O=C(O)CCN1C(=O)/C(=C2/C(=O)N(CC(=O)OCc3ccccc3)c3ccc(Br)cc32)SC1=S [Compound 2101] | – | – | > 30 | > 30 | > 30 | > 30 | – |

The next lines start with the compound.

| Structure (SMILES) | Kd (BCL6-BTB; Table 13) [µM] | GI50 (SUDHL6 DLBCL cells; [1]) [µM] | GI50 (Karpas 422 DLBCL cells; Table 8, Bcl-6 independent) [µM] | GI50 (SUDHL6 DLBCL cells; [7]) [µM] | GI50 (Toledo DLBCL cells; Table 13, BCL6 independent) [µM] | GI50 (Ly7 DLBCL cells; Table 13, BCL6 dependent) [µM] | GI50 (Ly3 DLBCL cells; Table 8, Bcl-6 dependent) [µM] | GI50 (Toledo DLBCL cells; Table 8, Bcl-6 independent) [µM] | GI50 (Ly7 DLBCL cells; Table 8, Bcl-6 dependent) [µM] | GI50 (WSU-DLCL2 DLBCL cells) [µM] | further results |
| --- | --- | --- | --- | --- | --- | --- | --- | --- | --- | --- | --- |
| Clc1ccc2[nH]c(SCc3ccccc3)nc2c1 [Compound 1057] | 87 ± 12 | > 125 | – | – | > 125 | > 125 | – | – | – | – | – |
| O=[N+]([O-])c1ccc2[nH]c(SCc3ccccc3)nc2c1 [Compound 1061] | 180 ± 36 | 40 ± 10 | – | – | > 125 | 60 | – | – | – | – | – |
| O=C(O)CN1C(=O)/C(=C2/C(=O)Nc3c(Cl)cc(Cl)cc32)SC1=S [Compound 2039, (Z)-2-(5-(5,7-Dichloro-2-oxoindolin-3-ylidene)-4-oxo-2-thioxothiazolidin-3-yl)acetic acid] | – | – | – | – | – | – | – | – | – | – | GI50 (Karpas 422 DLBCL cells; [2]): > 40 µM; GI50 (Ly3 DLBCL cells; [3]): > 40 µM; GI50 (Toledo DLBCL cells; [4]): > 40 µM; GI50 (SUDHL6 DLBCL cells; [5]): > 40 µM; GI50 (Ly1B50 DLBCL cells): > 40 µM; GI50 (Ly10 DLBCL cells): > 40 µM; GI50 (Ly7 DLBCL cells; 48 h, Table 2, BCL-6 dependent): > 40 µM |
| O=C(O)CN1C(=O)/C(=C2/C(=O)Nc3ccc(Br)cc32)SC1=S [Compound 2041, (Z)-2-(5-(5-Bromo-2-oxoindolin-3-ylidene)-4-oxo-2-thioxothiazolidin-3-yl)acetic acid] | – | – | – | – | – | – | – | – | – | – | GI50 (Karpas 422 DLBCL cells; [2]): > 40 µM; GI50 (Ly3 DLBCL cells; [3]): > 40 µM; GI50 (Toledo DLBCL cells; [4]): > 40 µM; GI50 (SUDHL6 DLBCL cells; [5]): > 40 µM; GI50 (Ly1B50 DLBCL cells): > 40 µM; GI50 (Ly10 DLBCL cells): > 40 µM; GI50 (Ly7 DLBCL cells; 48 h, Table 2, BCL-6 dependent): > 40 µM |
